Source: patent US4699925A, “Biphenylylpropionic acid derivative and pharmaceutical composition containing the same” (priority 1982, dated 1987)
Like-named read-outs stand apart in the source and are kept apart here.

Key:
[1] = Gastric ulceration (gastric irritation test); design: species or system Wistar male rats; conditions: rat, in vivo, po, read-out: UD50
Protocol: Five Wistar male rats weighing about 150 g. were used as one group. The rats were fasted for 24 hours before the test.
Six hours after orally administration of the present compounds to be tested, there was observed an existence of gastric ulcer by the method of Okabe et al (Ohyoyakuri, 16, 241 to 247 (1978)). The UD50 values were calculated from the ulcer incidence of gastric ulcer by the method of Litchfield-Wilcoxon.

[2] = system: carrageenan-induced edema; assay: Inhibitory effect on carrageenan-induced edema; assay type: in vivo, Wistar male rats; conditions: Rattus norvegicus
Protocol: Five Wistar male rats weighing about 150 g. were used as one group. A 1% dispersion of carrageenan was injected intracutaneously into the foot pad of the right hind foot in a dose of 0.1 ml./rat. The compounds to be tested were orally administered to the rats fasted for 15 hours one hour before the carrageenan injection, or intravenously administered 2 hours […] the carrageenan injection. The volume of the foot subjected to the injection was measured by a mercury plethysmography 3 hours after the carrageenan injection on the test by oral route or 2 hours after the carrageenan injection on the test by intravenous route, and the carrageenan-induced edema was estimated from the obtained measurements.

[3] = Acute toxicity; design: species or system male SLC-ddY mice; conditions: mouse, in vivo, po
[4] = Hydrolysis of FP derivatives in human plasma; assay type: in vitro ADME; conditions: 37° C., one hour, read-out: Hydrolyzing rate
Protocol: (§1) Each reaction mixture was incubated at 37° C. for one hour.
(§2) The free FP formed by esterase in the plasma was extracted with benzene. After treating the extract with N,O-bis(trimethylsilylacetamide) for trimethylsilylation, the obtained material was determined by gas-liquid chromatography.

[5] = Hydrolysis of FP derivatives in rat plasma; assay type: in vitro ADME; conditions: Table 4; rat plasma (Compound Nos. 8 to 13), 37° C., one hour; read-out: Hydrolyzing rate
Protocol: as §1, §2

[6] = Table 1, orally in rats, 50% ulcerative dose
[7] = Table 3, rats, orally, six hours after administration
[8] = Table 1, orally in mice, 50% lethal dose
[9] = Table 5, mice, orally, observation for 2 weeks
[10] = human, plasma, Table 1, human plasma
[11] = human, plasma, Table 4, human plasma (Compound Nos. 1 to 7)

CC(=O)OCOC(=O)C(C)c1ccc(-c2ccccc2)c(F)c1 (stereo not shown) [Compound No. 1, acetoxymethyl 2-(2-fluoro-4-biphenylyl)propionate]
TD50 at 6 h [1, 6]: 3.7 mg/kg
TD50 at 6 h [1, 7]: 3.6 mg/kg
ED50 ([2]; iv, 2 h, read-out: ED50 i.v.): 0.08 mg/kg
ED50 ([2]; po, 1 h, read-out: ED50 p.o.): 0.5 mg/kg
ED50 ([2]; po, read-out: ED50 p.o.): 0.5 mg/kg
LD50 at 336 h [3, 8]: 880 mg/kg
LD50 at 336 h [3, 9]: 880 mg/kg
metabolised at 1 h [4, 10]: 97.5%
metabolised at 1 h [4, 11]: 97.5%

CCC(=O)OCOC(=O)C(C)c1ccc(-c2ccccc2)c(F)c1 (stereo not shown) [Compound No. 2, propionyloxymethyl 2-(2-fluoro-4-biphenylyl)propionate]
TD50 at 6 h [1, 6]: 2.5 mg/kg
TD50 at 6 h [1, 7]: 2.5 mg/kg
ED50 ([2]; iv, 2 h, read-out: ED50 i.v.): 0.07 mg/kg
ED50 ([2]; po, 1 h, read-out: ED50 p.o.): 0.5 mg/kg
ED50 ([2]; po, read-out: ED50 p.o.): 0.5 mg/kg
LD50 at 336 h [3, 8]: 750 mg/kg
LD50 at 336 h [3, 9]: 750 mg/kg
metabolised at 1 h [4, 10]: 94.6%
metabolised at 1 h [4, 11]: 94.6%

CC(C)C(=O)OCOC(=O)C(C)c1ccc(-c2ccccc2)c(F)c1 (stereo not shown) [Compound No. 3, isobutyryloxymethyl 2-(2-fluoro-4-biphenylyl)propionate]
TD50 at 6 h [1, 6]: 2 mg/kg
TD50 at 6 h [1, 7]: 2 mg/kg
ED50 ([2]; iv, 2 h, read-out: ED50 i.v.): 0.1 mg/kg
ED50 ([2]; po, 1 h, read-out: ED50 p.o.): 0.6 mg/kg
ED50 ([2]; po, read-out: ED50 p.o.): 0.6 mg/kg
LD50 at 336 h [3, 8]: 600 mg/kg
LD50 at 336 h [3, 9]: 600 mg/kg
metabolised at 1 h [4, 10]: 86.3%
metabolised at 1 h [4, 11]: 86.3%

C/C=C/C(=O)OCOC(=O)C(C)c1ccc(-c2ccccc2)c(F)c1 (stereo not shown) [Compound No. 4, crotonoyloxymethyl 2-(2-fluoro-4-biphenylyl)propionate]
TD50 at 6 h [1, 6]: 2 mg/kg
TD50 at 6 h [1, 7]: 2 mg/kg
ED50 ([2]; iv, 2 h, read-out: ED50 i.v.): 0.08 mg/kg
ED50 ([2]; po, 1 h, read-out: ED50 p.o.): 0.6 mg/kg
ED50 ([2]; po, read-out: ED50 p.o.): 0.6 mg/kg
LD50 at 336 h [3, 8]: 600 mg/kg
LD50 at 336 h [3, 9]: 600 mg/kg
metabolised at 1 h [4, 10]: 81.4%
metabolised at 1 h [4, 11]: 81.4%

CC(C)=CC(=O)OCOC(=O)C(C)c1ccc(-c2ccccc2)c(F)c1 (stereo not shown) [Compound No. 5, 3,3-dimethylacryloyloxymethyl 2-(2-fluoro-4-biphenylyl)propionate]
TD50 at 6 h [1, 6]: 2 mg/kg
TD50 at 6 h [1, 7]: 2 mg/kg
ED50 ([2]; iv, 2 h, read-out: ED50 i.v.): 0.06 mg/kg
ED50 ([2]; po, 1 h, read-out: ED50 p.o.): 0.5 mg/kg
ED50 ([2]; po, read-out: ED50 p.o.): 0.5 mg/kg
LD50 at 336 h [3, 8]: 900 mg/kg
LD50 at 336 h [3, 9]: 900 mg/kg
metabolised at 1 h [4, 10]: 64.8%
metabolised at 1 h [4, 11]: 115%

CCCCCCCCCCCCCCCC(=O)OCOC(=O)C(C)c1ccc(-c2ccccc2)c(F)c1 (stereo not shown) [Compound No. 6, palmitoyloxymethyl 2-(2-fluoro-4-biphenylyl)propionate]
TD50 at 6 h [1, 6]: 5 mg/kg
TD50 at 6 h [1, 7]: 5 mg/kg
ED50 ([2]; iv, 2 h, read-out: ED50 i.v.): 0.5 mg/kg
ED50 ([2]; po, 1 h, read-out: ED50 p.o.): 1.5 mg/kg
ED50 ([2]; po, read-out: ED50 p.o.): 1.5 mg/kg
LD50 at 336 h [3, 8]: 1000 mg/kg
LD50 at 336 h [3, 9]: > 1000 mg/kg
metabolised at 1 h [4, 10]: 3.8%
metabolised at 1 h [4, 11]: 3.8%

CC(C(=O)OCOC(=O)C(C)(C)C)c1ccc(-c2ccccc2)c(F)c1 (stereo not shown) [Compound No. 7, pivaloyloxymethyl 2-(2-fluoro-4-biphenylyl)propionate]
TD50 at 6 h [1, 6]: 2.5 mg/kg
TD50 at 6 h [1, 7]: 2.5 mg/kg
ED50 ([2]; iv, 2 h, read-out: ED50 i.v.): 0.1 mg/kg
ED50 ([2]; po, 1 h, read-out: ED50 p.o.): 0.6 mg/kg
ED50 ([2]; po, read-out: ED50 p.o.): 0.6 mg/kg
LD50 at 336 h [3, 8]: 840 mg/kg
LD50 at 336 h [3, 9]: 840 mg/kg
metabolised at 1 h [4, 10]: 70.3%
metabolised at 1 h [4, 11]: 70.3%

CC(=O)OCCOC(=O)C(C)c1ccc(-c2ccccc2)c(F)c1 (stereo not shown) [Compound No. 8, 2-(acetoxy)ethyl 2-(2-fluoro-4-biphenylyl)propionate]
TD50 at 6 h [1, 6]: 2 mg/kg
TD50 at 6 h [1, 7]: 2 mg/kg
ED50 ([2]; po, 1 h, read-out: ED50 p.o.): 0.7 mg/kg
ED50 ([2]; po, read-out: ED50 p.o.): 0.7 mg/kg
metabolised at 1 h [5]: 101%
LD50 at 336 h [3, 8]: 650 mg/kg
LD50 at 336 h [3, 9]: 650 mg/kg

CCC(=O)OCCOC(=O)C(C)c1ccc(-c2ccccc2)c(F)c1 (stereo not shown) [Compound No. 9, 2-(propionyloxy)ethyl 2-(2-fluoro-4-biphenylyl)propionate]
TD50 at 6 h [1, 6]: 2 mg/kg
TD50 at 6 h [1, 7]: 2 mg/kg
ED50 ([2]; po, 1 h, read-out: ED50 p.o.): 0.7 mg/kg
ED50 ([2]; po, read-out: ED50 p.o.): 0.7 mg/kg
metabolised at 1 h [5]: 98.9%
LD50 at 336 h [3, 8]: 700 mg/kg
LD50 at 336 h [3, 9]: 700 mg/kg

C/C=C/C(=O)OCCOC(=O)C(C)c1ccc(-c2ccccc2)c(F)c1 (stereo not shown) [Compound No. 10, 2-(crotonoyloxy)ethyl 2-(2-fluoro-4-biphenylyl)propionate]
TD50 at 6 h [1, 6]: 3 mg/kg
TD50 at 6 h [1, 7]: 3 mg/kg
ED50 ([2]; po, 1 h, read-out: ED50 p.o.): 0.9 mg/kg
ED50 ([2]; po, read-out: ED50 p.o.): 0.9 mg/kg
metabolised at 1 h [5]: 99.5%
LD50 at 336 h [3, 8]: 800 mg/kg
LD50 at 336 h [3, 9]: 800 mg/kg

CC(C)=CC(=O)OCCOC(=O)C(C)c1ccc(-c2ccccc2)c(F)c1 (stereo not shown) [Compound No. 11, 2-(3,3-dimethylacryloyloxy)ethyl 2-(2-fluoro-4-biphenylyl)propionate]
TD50 at 6 h [1, 6]: 3 mg/kg
TD50 at 6 h [1, 7]: 3 mg/kg
ED50 ([2]; po, 1 h, read-out: ED50 p.o.): 1 mg/kg
ED50 ([2]; po, read-out: ED50 p.o.): 1 mg/kg
metabolised at 1 h [5]: 99.8%
LD50 at 336 h [3, 8]: 880 mg/kg
LD50 at 336 h [3, 9]: 880 mg/kg

CC=CC=CC(=O)OCCOC(=O)C(C)c1ccc(-c2ccccc2)c(F)c1 (stereo not shown) [Compound No. 12, 2-(2,4-hexadienoyloxy)ethyl 2-(2-fluoro-4-biphenylyl)propionate]
TD50 at 6 h [1, 6]: 3 mg/kg
TD50 at 6 h [1, 7]: 3 mg/kg
ED50 ([2]; po, 1 h, read-out: ED50 p.o.): 0.9 mg/kg
ED50 ([2]; po, read-out: ED50 p.o.): 0.9 mg/kg
metabolised at 1 h [5]: 100%
LD50 at 336 h [3, 8]: 750 mg/kg
LD50 at 336 h [3, 9]: 750 mg/kg

CC(C)=CCCC(C)=CC(=O)OCCOC(=O)C(C)c1ccc(-c2ccccc2)c(F)c1 (stereo not shown) [Compound No. 13, 2-(3,7-dimethyl-2,6-octadienoyloxy)ethyl 2-(2-fluoro-4-biphenylyl)propionate]
TD50 at 6 h [1, 6]: 3 mg/kg
TD50 at 6 h [1, 7]: 3 mg/kg
ED50 ([2]; po, 1 h, read-out: ED50 p.o.): 0.9 mg/kg
ED50 ([2]; po, read-out: ED50 p.o.): 0.9 mg/kg
metabolised at 1 h [5]: 101%
LD50 at 336 h [3, 8]: 750 mg/kg
LD50 at 336 h [3, 9]: 750 mg/kg

CC(C(=O)O)c1ccc(-c2ccccc2)c(F)c1 (stereo not shown) [FP, 2-(2-fluoro-4-biphenylyl)propionic acid, reference compound]
TD50 at 6 h [1, 6]: 1 mg/kg
TD50 at 6 h [1, 7]: 1 mg/kg
ED50 ([2]; iv, 2 h, read-out: ED50 i.v.): 0.3 mg/kg
ED50 ([2]; po, 1 h, read-out: ED50 p.o.): 0.8 mg/kg
ED50 ([2]; po, read-out: ED50 p.o.): 0.8 mg/kg
LD50 at 336 h [3, 8]: 440 mg/kg
LD50 at 336 h [3, 9]: 440 mg/kg

COc1ccc2c(c1)c(CC(=O)OCC(=O)O)c(C)n2C(=O)c1ccc(Cl)cc1 [acemethacin, reference compound]
ED50 ([2]; po, 1 h, Table 1, rats, orally, one hour before carrageenan injection, read-out: ED50 p.o.): 8.3 mg/kg
ED50 ([2]; po, Table 2, rats, orally one hour before carrageenan injection, measured 3 hours after carrageenan, read-out: ED50 p.o.): 8.3 mg/kg
LD50 at 336 h [3, 8]: 18 mg/kg
LD50 at 336 h [3, 9]: 18 mg/kg
metabolised at 1 h ([4]; Table 4, human plasma (Compound Nos. 1 to 7)): 4.2%

COc1ccc2c(c1)c(CC(=O)O)c(C)n2C(=O)c1ccc(Cl)cc1 [indomethacin, reference compound]
TD50 at 6 h [1, 6]: 5 mg/kg
TD50 at 6 h [1, 7]: 5 mg/kg
ED50 ([2]; iv, 2 h, read-out: ED50 i.v.): 1.25 mg/kg
ED50 ([2]; po, 1 h, read-out: ED50 p.o.): 5.5 mg/kg
ED50 ([2]; po, read-out: ED50 p.o.): 5.5 mg/kg
LD50 at 336 h [3, 8]: 14 mg/kg
LD50 at 336 h [3, 9]: 14 mg/kg
